Assay results reported in patent US12018024B2, “Compounds and compositions for the treatment of cryptosporidiosis” (Novartis AG, priority 2020, dated 2024).

Tests used:
[1] = molecular target: C. parvum PI(4)K (Cryptosporidium parvum, UniProt Q5CVD3); experiment: CpPI(4)K enzymatic assay (Transcreener ADP2 FP); type: biochemical
From the text: Baculovirus expression and purification of C. parvum phosphatidylinositol 4-kinase: The full-length coding sequence of C. parvum PI(4)K (cgd8_4500, 1114 amino acids) was codon-optimized for baculovirus expression, synthesized and cloned into pFastBac-HTb (Invitrogen 10584-027) in frame with the amino-terminal polyhistidine tag using the BamHI and HindIII restriction sites. Recombinant pFastBacHTb-CpPI(4)K bacmid clones were generated by site-specific transposition in E. coli DH10Bac (Invitrogen 10361-012). The bacmid sequence was confirmed by direct DNA sequencing to confirm a lack of mutations across the whole gene. The subsequent steps for bacmid isolation, transfection and selection of the recombinant viruses were performed according to the manufacturer's protocol (Bac-to-Bac system #10359, Invitrogen).
SF9 cells, cultured in […] serum-free medium, were transfected with recombinant baculovirus at 1/200 (v/v) and incubated at 27° C. for 72 h. The pellets were collected after centrifugation and re-suspended in cell lysis buffer (20 mM Tris-HCl, pH 7.5, 300 mM NaCl, 1 mM DTT, 20 mM imidazole, 0.01% Triton X-100 and 1× complete protease inhibitor cocktail without EDTA (Roche Diagnostics 04693116001)). The cell suspension was lysed by sonication and the clarified supernatant was loaded onto a 1 ml HisTrap affinity column (GE Healthcare) pre-equilibrated with buffer A (20 mM Tris-HCl, pH 7.5, 300 mM NaCl, 1 mM DTT, 20 mM Imidazole, and 1× complete protease inhibitor cocktail without EDTA). The column was washed with buffer B (buffer A containing 45 mM imidazole) and the bound protein of interest was eluted with buffer C (buffer A with 90 mM imidazole). The fractions containing CpPI(4)K were pooled, concentrated using Amicon Ultra-15 and purified by a gel-filtration column (Hi-Load 26/60 Superdex 200, GE Healthcare) equilibrated with 20 mM Tris, pH 7.5, 300 mM NaCl, 1 mM DTT and 1× protease inhibitor cocktail without EDTA. The concentrations of the purified protein (Mw 132.39 kda) was determined by using the protein molar extinction coefficient (ε280 nm=133,810 M^−1 cm^−1). Aliquots were flash frozen in liquid nitrogen and immediately stored at −80° C.
PI(4)K enzymatic Assay The CpPI(4)K enzymatic assay was performed as described earlier with a some modifications (McNamara et al., 2013). Briefly, L-α-phosphatidylinositol (Avanti Polar Lipid 840046), dissolved in 3% n-octylglucoside (Roche Diagnostics 10634425001), was used as the lipid substrate for the PI(4)K activity assay. CpPI(4)K was assayed using Transcreener ADP2 FP detection kit (BellBrook 3010) in a black, solid 384-well plate (Corning 3575). The final assay volume was 10 μl and contained 3 nM of the respective CpPI(4)K construct in 10 mM Tris, pH 7.5, 1 mM DTT, 3 μM ATP, 5 mM Mn2+, 0.05% Triton X-100 and 10 μM phosphatidylinositol/octylglucoside. The enzyme reaction was performed for 50 minutes at room temperature and was stopped by adding 10 μl of detection mix containing 1× stop buffer (50 mM HEPES, pH7.5, 400 mM NaCl, 20 mM EDTA, and 0.02% Brij-35), 2 nM AMP Alexa Fluor 633 tracer, and 20 μg ml^−1 ADP antibody. Fluorescence polarization measurements were performed on the Infinite M1000 plate reader (Tecan) with λex=635 nm and λem=680 nm (20-nm bandwidth). IC50 values were calculated using Graphpad Prism software.

[2] = test system: Cryptosporidium parvum; experiment: Cytopathic effect (CPE) based assay, C. parvum-infected HCT-8 cells; type: cell-based; conditions: HCT-8, 48 h, read-out: (b) C.p.* CPE EC50 (μM)
Experimental: Human ileocecal colorectal adenocarcinoma cells (HCT-8 [HRT-18] ATCC, CCL-34) were maintained in T-175 flasks (Corning, 431080) in complete growth medium (RPMI-1640 medium (Gibco, 11875) supplemented with 10% heat-inactivated horse serum (Gibco, 26050), 1× MEM non-essential amino acids (Gibco, 11140), 10 mM HEPES (Gibco, 15630), 100 units/mL penicillin, and 100 units/mL streptomycin) at 37° C. and 5% CO2 in a humidified incubator. Cultures were passaged twice weekly using 10 mL of 1× Phosphate-Buffered Saline (PBS) without Ca^2+ and Mg^2+ (Gibco, 20012) for washing and 3-5 mL per T-175 flask of TrypLE Express Enzyme (Gibco, 12604) for dissociation of adherent cells.
Cryptosporidium parvum oocysts purchased from the Sterling Laboratory, University of Arizona (Iowa isolate) were purified from infected calf feces using discontinuous sucrose and cesium chloride centrifugation gradients and stored in PBS solution containing 0.01% Tween 20, 100 units/mL penicillin and 100 units/mL gentamicin.
Excystaion and infection: Excystation and infection protocols were developed following established methods with some modifications (Gut & Nelson, 1999, Upton et al., 1995, Bessoff et al., 2013). Briefly, oocysts were primed in 1 mL of 10 mM hydrochloric acid in 1× Hank's Balanced Salt Solution (HBSS) (Gibco, 14025) for 10 minutes with agitation at 1000 rpm, 37° C. on an Eppendorf thermomixer, then washed twice with 1 mL of room temperature non-acidic 1× HBSS by centrifugation at 13,000 rpm for 3 minutes at 25° C. Primed oocysts were further excysted at a concentration of 1×10^6 oocysts/μL in parasite infection medium consisting of a pre-warmed and pre-gassed 1:1 formulation of Leibovitz's L-15 medium (Gibco, 11415) and UltraCULTURE medium (Lonza, 12-725F) supplemented with 2 mM sodium taurocholate (Sigma, 86339-1), 10% heat-inactivated horse serum, and 200 μM L-ascorbic acid (Sigma, 95210) at 25° C. for 10 minutes. HCT-8 monolayer cells were infected with excysted cryptosporidium at a specified multiplicity of infection (MOI). All dilutions for subsequent assays were performed in parasite infection medium without sodium taurocholate. Pre-excysted oocysts were enumerated microscopically using a C-Chip disposable hemocytometer (NanoEnTek, DHC-N01).
Compound and assay plate preparation: Compound powders were dissolved in neat DMSO (Fisher, D4121) to 10 mM and stored at 4° C. prior to dilution into source plates. Dilutions were carried out using a Microlab STAR liquid handler (Hamilton) to obtain compound source plates containing the ten-point or eight-point three fold dilutions starting from 10 mM in duplicates. Source plates were stored at 4° C. prior to spotting into assay plates. Before administration, all compound source plates were equilibrated to room temperature. A specified volume of compounds from source plate were spotted to assay plate using an Echo Acoustic liquid handler (LABCYTE, 550) so that the final DMSO concentration was less than 0.5%. Each assay plate a specified number of DMSO-treated negative control wells and a well-studied potent active compound at 100 nM as positive control. As a quality control, all positive and negative-control wells were used to calculate a Z′-value and signal to noise ratio (S:N) for each plate.
Cryptosporidium spp are obligate-intracellular parasites that infect intestinal epithelial cells and the host cell is killed upon parasite egress. […] The loss of epithelial cells is due to both rapid parasite invasion/multiplication/egress and also pro-inflammatory immune response (Adams et al., 1994, Griffiths et al., 1994). We have observed a consistent cytopathic effect (CPE) in HCT-8 cells with C. spp infection the loss of viability of the host cells using CellTiter-Glo reagent.
Confluent HCT-8 cells in T-175 flasks were directly infected with excysted oocysts at an MOI (host to parasite) of 1:2 for C. parvum and 1:4 for C. hominis. […]

[3] = molecular target: H.s. PI(4)K (Homo sapiens, UniProt Q9UBF8); experiment: H.s. PI(4)K IC50; type: biochemical; conditions: read-out: (d) H.s.* PI(4)K IC50
H.s. PI(4)K, sequence (Q9UBF8 2-816 limits assumed): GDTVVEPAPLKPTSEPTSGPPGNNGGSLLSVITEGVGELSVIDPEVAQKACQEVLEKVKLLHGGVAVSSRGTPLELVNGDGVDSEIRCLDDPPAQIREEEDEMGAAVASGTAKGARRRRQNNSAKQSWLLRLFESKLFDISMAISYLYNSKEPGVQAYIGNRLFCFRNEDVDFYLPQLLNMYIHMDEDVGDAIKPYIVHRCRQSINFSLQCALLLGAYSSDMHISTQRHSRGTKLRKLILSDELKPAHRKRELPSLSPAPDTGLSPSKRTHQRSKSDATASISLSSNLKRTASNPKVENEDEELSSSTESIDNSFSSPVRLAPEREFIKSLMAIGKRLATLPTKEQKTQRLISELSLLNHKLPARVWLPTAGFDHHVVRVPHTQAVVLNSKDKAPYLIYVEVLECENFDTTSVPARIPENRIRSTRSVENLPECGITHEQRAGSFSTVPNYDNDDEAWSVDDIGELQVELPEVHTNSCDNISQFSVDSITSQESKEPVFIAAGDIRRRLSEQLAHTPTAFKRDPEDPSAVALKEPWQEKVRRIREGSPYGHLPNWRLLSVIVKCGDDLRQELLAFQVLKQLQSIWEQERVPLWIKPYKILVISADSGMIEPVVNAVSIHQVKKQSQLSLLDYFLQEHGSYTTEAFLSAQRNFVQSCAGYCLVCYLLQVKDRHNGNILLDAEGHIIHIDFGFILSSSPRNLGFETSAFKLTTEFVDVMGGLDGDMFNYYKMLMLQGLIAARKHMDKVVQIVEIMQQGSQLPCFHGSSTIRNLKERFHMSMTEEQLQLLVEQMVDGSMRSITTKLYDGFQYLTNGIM

C. parvum PI(4)K, sequence (Q5CVD3 entry or part of it): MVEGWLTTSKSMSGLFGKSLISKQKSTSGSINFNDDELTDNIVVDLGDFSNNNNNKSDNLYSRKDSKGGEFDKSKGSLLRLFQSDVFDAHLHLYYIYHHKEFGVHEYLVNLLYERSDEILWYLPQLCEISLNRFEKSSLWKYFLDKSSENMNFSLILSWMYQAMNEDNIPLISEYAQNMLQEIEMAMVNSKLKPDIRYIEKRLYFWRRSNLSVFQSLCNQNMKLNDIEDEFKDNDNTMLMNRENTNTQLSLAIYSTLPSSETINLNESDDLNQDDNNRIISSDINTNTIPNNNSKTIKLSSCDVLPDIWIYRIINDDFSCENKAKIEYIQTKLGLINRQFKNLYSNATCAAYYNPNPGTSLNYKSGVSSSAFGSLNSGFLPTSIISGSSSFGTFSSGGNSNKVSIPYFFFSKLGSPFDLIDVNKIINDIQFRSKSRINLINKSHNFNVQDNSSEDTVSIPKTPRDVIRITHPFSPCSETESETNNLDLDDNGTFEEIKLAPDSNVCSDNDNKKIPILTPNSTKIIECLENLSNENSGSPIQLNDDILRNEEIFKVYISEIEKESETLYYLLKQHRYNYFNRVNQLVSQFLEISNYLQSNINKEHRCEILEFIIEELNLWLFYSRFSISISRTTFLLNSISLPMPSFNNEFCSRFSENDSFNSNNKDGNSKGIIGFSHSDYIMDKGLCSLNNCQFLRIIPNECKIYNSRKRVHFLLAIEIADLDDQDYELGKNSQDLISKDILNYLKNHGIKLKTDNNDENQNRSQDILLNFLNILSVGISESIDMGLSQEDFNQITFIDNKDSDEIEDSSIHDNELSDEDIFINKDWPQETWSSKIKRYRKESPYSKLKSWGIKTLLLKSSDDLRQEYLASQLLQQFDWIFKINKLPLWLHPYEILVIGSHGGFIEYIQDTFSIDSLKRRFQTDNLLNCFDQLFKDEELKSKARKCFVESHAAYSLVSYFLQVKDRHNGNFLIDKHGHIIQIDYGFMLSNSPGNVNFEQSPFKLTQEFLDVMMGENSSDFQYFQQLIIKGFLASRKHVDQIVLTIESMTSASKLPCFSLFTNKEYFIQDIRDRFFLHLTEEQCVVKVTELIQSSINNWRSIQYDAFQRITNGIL

CCOC(=O)OC(C)OC(=O)c1cc(N(C)C(=O)c2ccn3ncc(-c4ccc(C(N)=O)cc4)c3c2)ccc1Cl (racemic) [Example 1.14, rac-1-((Ethoxycarbonyl)oxy)ethyl 5-(3-(4-carbamoylphenyl)-N-methylpyrazolo[1,5-a]pyridine-5-carboxamido)-2-chlorobenzoate]
IC50 [1]: 100 to 1000 nM | EC50 [2]: > 1 µM | IC50 [3]: > 1000 nM

CN(C(=O)c1ccn2ncc(-c3ccc(C(N)=O)cc3)c2c1)c1ccc(Cl)c(C(=O)OCC2CCCO2)c1 (racemic) [Example 1.15, rac-(Tetrahydrofuran-2-yl)methyl 5-(3-(4-carbamoylphenyl)-N-methylpyrazolo[1,5-a]pyridine-5-carboxamido)-2-chlorobenzoate]
IC50 [1]: < 100 nM | EC50 [2]: 0.1 to 1 µM

CN(C(=O)c1ccn2ncc(-c3ccc(C(N)=O)cc3)c2c1)c1ccc(Cl)c(C(=O)OC(C)(C)C)c1 [Example 1.02, tert-Butyl 5-(3-(4-carbamoylphenyl)-N-methylpyrazolo[1,5-a]pyridine-5-carboxamido)-2-chlorobenzoate]
IC50 [1]: < 100 nM | EC50 [2]: 0.1 to 1 µM

CSCCOC(=O)c1cc(N(C)C(=O)c2ccn3ncc(-c4ccc(C(N)=O)cc4)c3c2)ccc1Cl [Example 1.04, 2-(Methylthio)ethyl 5-(3-(4-carbamoylphenyl)-N-methylpyrazolo[1,5-a]pyridine-5-carboxamido)-2-chlorobenzoate]
IC50 [1]: < 100 nM | EC50 [2]: > 1 µM

CC(C)COC(=O)c1cc(N(C)C(=O)c2ccn3ncc(-c4ccc(C(N)=O)cc4)c3c2)ccc1Cl [Example 1.05, Isobutyl 5-(3-(4-carbamoylphenyl)-N-methylpyrazolo[1,5-a]pyridine-5-carboxamido)-2-chlorobenzoate]
IC50 [1]: < 100 nM | EC50 [2]: 0.1 to 1 µM

COC(=O)COC(=O)c1cc(N(C)C(=O)c2ccn3ncc(-c4ccc(C(N)=O)cc4)c3c2)ccc1Cl [Example 1.06, 2-Methoxy-2-oxoethyl 5-(3-(4-carbamoylphenyl)-N-methylpyrazolo[1,5-a]pyridine-5-carboxamido)-2-chlorobenzoate]
IC50 [1]: < 100 nM | EC50 [2]: > 1 µM

CN(C(=O)c1ccn2ncc(-c3ccc(C(N)=O)cc3)c2c1)c1ccc(Cl)c(C(=O)OCc2cncs2)c1 [Example 1.07, Thiazol-5-ylmethyl 5-(3-(4-carbamoylphenyl)-N-methylpyrazolo[1,5-a]pyridine-5-carboxamido)-2-chlorobenzoate]
IC50 [1]: < 100 nM | EC50 [2]: 0.1 to 1 µM

CCOC(=O)c1cc(N(C)C(=O)c2ccn3ncc(-c4ccc(C(N)=O)cc4)c3c2)ccc1Cl [Example 1.09, Ethyl 5-(3-(4-carbamoylphenyl)-N-methylpyrazolo[1,5-a]pyridine-5-carboxamido)-2-chlorobenzoate]
IC50 [1]: < 100 nM | EC50 [2]: 0.1 to 1 µM

CN(C(=O)c1ccn2ncc(-c3ccc(C(N)=O)cc3)c2c1)c1ccc(Cl)c(C(=O)OCC(F)(F)F)c1 [Example 1.10, 2,2,2-Trifluoroethyl 5-(3-(4-carbamoylphenyl)-N-methylpyrazolo[1,5-a]pyridine-5-carboxamido)-2-chlorobenzoate]
IC50 [1]: < 100 nM | EC50 [2]: > 1 µM

COCCOC(=O)c1cc(N(C)C(=O)c2ccn3ncc(-c4ccc(C(N)=O)cc4)c3c2)ccc1Cl [Example 1.11, 2-Methoxyethyl 5-(3-(4-carbamoylphenyl)-N-methylpyrazolo[1,5-a]pyridine-5-carboxamido)-2-chlorobenzoate]
IC50 [1]: < 100 nM | EC50 [2]: 0.1 to 1 µM

CN(C)C(=O)COC(=O)c1cc(N(C)C(=O)c2ccn3ncc(-c4ccc(C(N)=O)cc4)c3c2)ccc1Cl [Example 1.12, 2-(Dimethylamino)-2-oxoethyl 5-(3-(4-carbamoylphenyl)-N-methylpyrazolo[1,5-a]pyridine-5-carboxamido)-2-chlorobenzoate]
IC50 [1]: < 100 nM | EC50 [2]: 0.1 to 1 µM

CC(C)OC(=O)c1cc(N(C)C(=O)c2ccn3ncc(-c4ccc(C(N)=O)cc4)c3c2)ccc1Cl [Example 1.13, Isopropyl 5-(3-(4-carbamoylphenyl)-N-methylpyrazolo[1,5-a]pyridine-5-carboxamido)-2-chlorobenzoate]
IC50 [1]: < 100 nM | EC50 [2]: 0.1 to 1 µM

CNC(=O)c1ccc(-c2cnn3ccc(C(=O)N(C)c4ccc(Cl)c(C(=O)OC(C)(C)C)c4)cc23)cc1 [Example 1.17, t-Butyl 2-chloro-5-(N-methyl-3-(4-(methylcarbamoyl)phenyl)pyrazolo[1,5-a]pyrdine-5-carboxamido)benzoate]
IC50 [1]: < 100 nM | EC50 [2]: < 0.1 µM

CNC(=O)c1ccc(-c2cnn3ccc(C(=O)N(C)c4ccc(OC(F)(F)F)c(C(=O)OC)c4)cc23)cc1 [Example 1.26, Methyl 5-(N-methyl-3-(4-(methylcarbamoyl)phenyl)pyrazolo[1,5-a]pyridine-5-carboxamido)-2-(trifluoromethoxy)benzoate]
IC50 [1]: < 100 nM | EC50 [2]: 0.1 to 1 µM
